Experimental data reported in ChEMBL document CHEMBL2146404, “O-Hydroxyl- or o-amino benzylamine-tacrine hybrids: multifunctional biometals chelators, antioxidants, and inhibitors of cholinesterase activity and amyloid-β aggregation” (Bioorg Med Chem, 2012).
Active and inactive are the calls of the source. The rule behind the calls is not given here.

How the values were obtained:
[1] = biological target: Acetylcholinesterase (Electrophorus electricus, UniProt O42275)
Description: Inhibition of electric eel AChE using acetylthiocholine chloride as substrate preincubated for 15 mins by Ellman's method

[2] = biological target: Cholinesterase (Equus caballus, UniProt P81908)
Cholinesterase, sequence (P81908 whole entry): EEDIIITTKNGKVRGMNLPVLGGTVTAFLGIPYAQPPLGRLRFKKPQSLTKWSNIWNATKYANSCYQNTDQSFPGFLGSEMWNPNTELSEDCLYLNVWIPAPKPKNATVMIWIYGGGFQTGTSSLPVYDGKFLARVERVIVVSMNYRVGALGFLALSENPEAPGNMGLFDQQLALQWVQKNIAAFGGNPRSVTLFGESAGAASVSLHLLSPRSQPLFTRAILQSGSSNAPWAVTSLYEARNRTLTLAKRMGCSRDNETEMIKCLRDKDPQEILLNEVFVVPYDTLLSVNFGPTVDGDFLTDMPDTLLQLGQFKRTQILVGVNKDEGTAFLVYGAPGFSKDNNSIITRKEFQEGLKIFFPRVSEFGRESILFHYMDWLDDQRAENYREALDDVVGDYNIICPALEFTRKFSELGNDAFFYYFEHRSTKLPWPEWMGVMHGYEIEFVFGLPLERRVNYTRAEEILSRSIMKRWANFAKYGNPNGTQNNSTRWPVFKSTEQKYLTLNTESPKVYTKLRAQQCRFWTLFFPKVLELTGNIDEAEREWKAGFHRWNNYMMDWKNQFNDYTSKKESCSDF
Description: Inhibition of equine serum BuChE using butyrylthiocholine chloride as substrate preincubated for 15 mins by Ellman's method

[3] = biological target: Acetylcholinesterase (Homo sapiens, UniProt P22303); assay: Inhibition of human recombinant AChE using acetylthiocholine chloride as substrate preincubated for 15 mins by Ellman's method
Acetylcholinesterase (Homo sapiens, UniProt P22303), sequence (P22303 whole entry): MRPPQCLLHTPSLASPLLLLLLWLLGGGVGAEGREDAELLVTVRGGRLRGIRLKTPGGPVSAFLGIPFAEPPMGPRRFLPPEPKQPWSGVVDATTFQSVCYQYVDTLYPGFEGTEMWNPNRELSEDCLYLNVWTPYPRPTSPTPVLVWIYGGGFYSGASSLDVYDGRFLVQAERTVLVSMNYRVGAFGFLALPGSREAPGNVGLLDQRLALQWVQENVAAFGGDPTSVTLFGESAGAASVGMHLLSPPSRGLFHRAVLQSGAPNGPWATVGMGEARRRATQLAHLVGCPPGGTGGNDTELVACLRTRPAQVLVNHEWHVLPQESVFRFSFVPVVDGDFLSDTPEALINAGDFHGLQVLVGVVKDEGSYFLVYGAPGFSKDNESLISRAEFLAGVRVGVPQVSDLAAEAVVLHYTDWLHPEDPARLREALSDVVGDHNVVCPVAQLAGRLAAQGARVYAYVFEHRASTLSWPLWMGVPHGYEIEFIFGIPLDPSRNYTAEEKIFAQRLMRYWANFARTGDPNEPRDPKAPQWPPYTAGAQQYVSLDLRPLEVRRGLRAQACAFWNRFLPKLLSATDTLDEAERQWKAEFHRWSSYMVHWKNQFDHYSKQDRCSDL

[4] = Inhibition of […]-pretreated amyloid beta (1 to 42) self-aggregation at 20 uM after 48 hrs by thioflavin T based fluorometric assay
[5] = Metal chelating activity of the compound assessed as cupric ion complex formation at 40 uM after 30 mins by UV-vis spectrometry; type: functional
[6] = Metal chelating activity of the compound assessed as zinc ion complex formation at 40 uM after 30 mins by UV-vis spectrometry; type: functional
[7] = Metal chelating activity of the compound assessed as ferrous ion complex formation at 40 uM after 30 mins by UV-vis spectrometry; type: functional

Acetylcholinesterase (Electrophorus electricus, UniProt O42275), sequence (O42275 whole entry): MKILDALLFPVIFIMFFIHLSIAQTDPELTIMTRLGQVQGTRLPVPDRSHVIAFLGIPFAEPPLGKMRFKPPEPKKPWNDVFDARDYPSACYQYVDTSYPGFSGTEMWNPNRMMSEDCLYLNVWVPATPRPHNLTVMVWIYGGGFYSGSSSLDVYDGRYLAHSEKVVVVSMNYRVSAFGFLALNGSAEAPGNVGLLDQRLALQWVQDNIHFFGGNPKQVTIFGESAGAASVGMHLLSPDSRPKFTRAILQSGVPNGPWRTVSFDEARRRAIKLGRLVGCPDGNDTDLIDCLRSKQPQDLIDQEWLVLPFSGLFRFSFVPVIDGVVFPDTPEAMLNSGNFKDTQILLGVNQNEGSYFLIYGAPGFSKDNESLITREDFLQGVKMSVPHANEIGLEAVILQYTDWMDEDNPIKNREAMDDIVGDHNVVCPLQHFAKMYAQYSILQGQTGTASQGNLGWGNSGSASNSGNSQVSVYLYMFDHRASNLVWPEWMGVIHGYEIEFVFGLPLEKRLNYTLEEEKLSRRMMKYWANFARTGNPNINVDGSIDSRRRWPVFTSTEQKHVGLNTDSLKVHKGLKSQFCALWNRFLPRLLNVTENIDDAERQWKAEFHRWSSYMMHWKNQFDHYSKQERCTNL

**Q.** For `Oc1ccccc1CNCCCCCCNc1c2c(nc3ccccc13)CCCC2`, which IC50 [1] is on record?
**A.** 25.1 nM

**Q.** What about the IC50 [2] of the same compound?
**A.** 9.65 nM

**Q.** With `Oc1ccccc1CNCCCCCCCCNc1c2c(nc3ccccc13)CCCC2` as the compound, how does the IC50 [1] read?
**A.** 6.17 nM

**Q.** What about the IC50 [2] of the same compound?
**A.** 6.25 nM

**Q.** Which results are given for `c1ccc(CNCCCCCCCCNc2c3c(nc4ccccc24)CCCC3)nc1`?
**A.** IC50 [1]: 2.95 nM; IC50 [2]: 2.99 nM

**Q.** With `Oc1ccccc1CNCCNc1c2c(nc3ccccc13)CCCC2` as the compound, how does the IC50 [1] read?
**A.** 146 nM

**Q.** And the IC50 [2]?
**A.** 10 nM

**Q.** Which results are given for `CN(C)c1ccccc1CNCCCCCCCNc1c2c(nc3ccccc13)CCCC2`?
**A.** IC50 [3]: 5.18 nM; IC50 [1]: 3.5 nM; inhibition [4]: 30.7%; IC50 [2]: 2.92 nM

**Q.** Which IC50 [1] does the source give for `Oc1ccccc1CNCCCCNc1c2c(nc3ccccc13)CCCC2` here?
**A.** 252 nM

**Q.** And the IC50 [2]?
**A.** 20.3 nM

**Q.** With `Oc1ccccc1CNCCCCCCCCNc1c2c(nc3cc(Cl)ccc13)CCCC2` as the compound, how does the IC50 [1] read?
**A.** 6.77 nM

**Q.** What about the inhibition [4] of the same compound?
**A.** 25.8%

**Q.** What about the IC50 [2] of the same compound?
**A.** 18.5 nM

**Q.** Which results are given for `CCN(CC)c1ccccc1CNCCCCCCCCNc1c2c(nc3ccccc13)CCCC2`?
**A.** IC50 [1]: 1.36 nM; inhibition [4]: 40.1%; IC50 [2]: 2.82 nM

**Q.** Which results are given for `Oc1ccccc1CNCCCCCCCNc1c2c(nc3ccccc13)CCCC2`?
**A.** IC50 [1]: 9.55 nM; IC50 [2]: 5.84 nM

**Q.** With `Oc1ccccc1CNCCCCCCCCCNc1c2c(nc3ccccc13)CCCC2` as the compound, how does the IC50 [1] read?
**A.** 7.52 nM

**Q.** What about the IC50 [2] of the same compound?
**A.** 8.2 nM

**Q.** Which IC50 [1] does the source give for `Oc1ccccc1CNCCCNc1c2c(nc3ccccc13)CCCC2` here?
**A.** 131 nM

**Q.** And the IC50 [2]?
**A.** 46.1 nM

**Q.** Which results are given for `Oc1ccccc1CNCCCCCCCNc1c2c(nc3cc(Cl)ccc13)CCCC2`?
**A.** IC50 [1]: 10.5 nM; IC50 [2]: 17.8 nM

**Q.** For `Oc1ccccc1CNCCCCNc1c2c(nc3cc(Cl)ccc13)CCCC2`, which IC50 [1] is on record?
**A.** 125 nM

**Q.** And the IC50 [2]?
**A.** 28.1 nM

**Q.** Which IC50 [1] does the source give for `Oc1ccccc1CNCCCCCCNc1c2c(nc3cc(Cl)ccc13)CCCC2` here?
**A.** 43 nM

**Q.** And the IC50 [2]?
**A.** 11.1 nM

**Q.** What does the source list for `Oc1ccccc1CNCCCCCCCCCNc1c2c(nc3cc(Cl)ccc13)CCCC2`?
**A.** IC50 [1]: 7.78 nM; IC50 [2]: 23 nM

**Q.** With `CN(C)c1ccccc1CNCCCCCCCCNc1c2c(nc3ccccc13)CCCC2` as the compound, how does the IC50 [3] read?
**A.** 4.04 nM

**Q.** And the IC50 [1]?
**A.** 1.55 nM

**Q.** And the inhibition [4]?
**A.** 38.6%

**Q.** What about the IC50 [2] of the same compound?
**A.** 2.11 nM

**Q.** Which IC50 [1] does the source give for `Oc1ccccc1CNCCNc1c2c(nc3cc(Cl)ccc13)CCCC2` here?
**A.** 22.5 nM

**Q.** What about the IC50 [2] of the same compound?
**A.** 9.97 nM

**Q.** Which IC50 [1] does the source give for `Oc1ccccc1CNCCCNc1c2c(nc3cc(Cl)ccc13)CCCC2` here?
**A.** 43.3 nM

**Q.** And the IC50 [2]?
**A.** 76.5 nM

**Q.** For `CN(C)c1ccccc1CNCCCCCCCCCNc1c2c(nc3ccccc13)CCCC2`, which IC50 [3] is on record?
**A.** 3.52 nM

**Q.** What about the IC50 [1] of the same compound?
**A.** 0.55 nM

**Q.** And the Activity [5]?
**A.** Active

**Q.** What about the Activity [6] of the same compound?
**A.** Active

**Q.** What about the Activity [7] of the same compound?
**A.** Active

**Q.** And the inhibition [4]?
**A.** 39.4%

**Q.** And the IC50 [2]?
**A.** 2.65 nM
